Measured values: PubChem BioAssay (NCI)
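Five compound concentrations were applied to cells in 96-well plates for 48 hours; endpoints were derived by simple linear interpolation of the resulting dose-response curve. At the GI50, growth is halved. TGI is the concentration that stops growth completely.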

Tests used:
Assay in all cases: growth of human tumour cells (NCI), 48 h
786-0 renal = system: 786-0 renal
A498 renal = system: A498 renal
A549 NSCLC = system: A549 NSCLC
ACHN renal = system: ACHN renal
BT-549 breast = system: BT-549 breast
CAKI-1 renal = system: CAKI-1 renal
CCRF-CEM leukemia = system: CCRF-CEM leukemia
COLO 205 colon = system: COLO 205 colon
DU-145 prostate = system: DU-145 prostate
EKVX NSCLC = system: EKVX NSCLC
HCC-2998 colon = system: HCC-2998 colon
HCT-116 colon = system: HCT-116 colon
HCT-15 colon = system: HCT-15 colon
HL-60(TB) leukemia = system: HL-60(TB) leukemia
HOP-62 NSCLC = system: HOP-62 NSCLC
HOP-92 NSCLC = system: HOP-92 NSCLC
HS 578T breast = system: HS 578T breast
HT29 colon = system: HT29 colon
IGROV1 ovarian = system: IGROV1 ovarian
K-562 leukemia = system: K-562 leukemia
KM12 colon = system: KM12 colon
LOX IMVI melanoma = system: LOX IMVI melanoma
M14 melanoma = system: M14 melanoma
MALME-3M melanoma = system: MALME-3M melanoma
MCF7 breast = system: MCF7 breast
MDA-MB-231 breast = system: MDA-MB-231 breast
MDA-MB-435 = system: MDA-MB-435
MOLT-4 leukemia = system: MOLT-4 leukemia
NCI-H226 lung = system: NCI-H226 lung
NCI-H23 lung = system: NCI-H23 lung
NCI-H460 lung = system: NCI-H460 lung
NCI-H522 lung = system: NCI-H522 lung
NCI/ADR-RES ovarian = system: NCI/ADR-RES ovarian
OVCAR-3 ovarian = system: OVCAR-3 ovarian
OVCAR-4 ovarian = system: OVCAR-4 ovarian
OVCAR-5 ovarian = system: OVCAR-5 ovarian
OVCAR-8 ovarian = system: OVCAR-8 ovarian
PC-3 prostate = system: PC-3 prostate
RPMI-8226 leukemia = system: RPMI-8226 leukemia
RXF 393 renal = system: RXF 393 renal
SF-268 CNS = system: SF-268 CNS
SF-295 CNS = system: SF-295 CNS
SF-539 CNS = system: SF-539 CNS
SK-MEL-2 melanoma = system: SK-MEL-2 melanoma
SK-MEL-28 melanoma = system: SK-MEL-28 melanoma
SK-MEL-5 melanoma = system: SK-MEL-5 melanoma
SK-OV-3 ovarian = system: SK-OV-3 ovarian
SN12C renal = system: SN12C renal
SNB-19 CNS = system: SNB-19 CNS
SNB-75 CNS = system: SNB-75 CNS
SR leukemia = system: SR leukemia
SW-620 colon = system: SW-620 colon
T-47D breast = system: T-47D breast
TK-10 renal = system: TK-10 renal
U251 CNS = system: U251 CNS
UACC-257 melanoma = system: UACC-257 melanoma
UACC-62 melanoma = system: UACC-62 melanoma
UO-31 renal = system: UO-31 renal

Compound: Cc1c2cc(Cl)c3ccccc3c2c[n+]2ccccc12
- GI50 (786-0 renal): 4.11 µM
- TGI (786-0 renal): 33 µM
- GI50 (A498 renal): > 49.4 µM
- TGI (A498 renal): > 100 µM
- GI50 (A549 NSCLC): 8.54 µM
- TGI (A549 NSCLC): > 100 µM
- GI50 (ACHN renal): 22 µM
- TGI (ACHN renal): > 100 µM
- GI50 (BT-549 breast): 1.21 µM
- TGI (BT-549 breast): 5.4 µM
- GI50 (CAKI-1 renal): 21.8 µM
- TGI (CAKI-1 renal): > 100 µM
- GI50 (CCRF-CEM leukemia): 3.36 µM
- TGI (CCRF-CEM leukemia): 26.3 µM
- GI50 (COLO 205 colon): 1.83 µM
- TGI (COLO 205 colon): 10.2 µM
- GI50 (DU-145 prostate): 12.8 µM
- TGI (DU-145 prostate): 31.6 µM
- GI50 (EKVX NSCLC): 2.46 µM
- TGI (EKVX NSCLC): > 100 µM
- GI50 (HCC-2998 colon): 4.22 µM
- TGI (HCC-2998 colon): 17.8 µM
- GI50 (HCT-116 colon): 7.2 µM
- TGI (HCT-116 colon): 32.9 µM
- GI50 (HCT-15 colon): 41.8 µM
- TGI (HCT-15 colon): > 100 µM
- GI50 (HL-60(TB) leukemia): 19.2 µM
- TGI (HL-60(TB) leukemia): 55.3 µM
- GI50 (HOP-62 NSCLC): 2.24 µM
- TGI (HOP-62 NSCLC): 16.1 µM
- GI50 (HOP-92 NSCLC): 2.04 µM
- TGI (HOP-92 NSCLC): 27.4 µM
- GI50 (HS 578T breast): 1.12 µM
- TGI (HS 578T breast): 11.9 µM
- GI50 (HT29 colon): 14 µM
- TGI (HT29 colon): 43.1 µM
- GI50 (IGROV1 ovarian): 9.18 µM
- TGI (IGROV1 ovarian): 60.3 µM
- GI50 (K-562 leukemia): 2.98 µM
- TGI (K-562 leukemia): 27.2 µM
- GI50 (KM12 colon): 1.95 µM
- TGI (KM12 colon): 9.31 µM
- GI50 (LOX IMVI melanoma): 15 µM
- TGI (LOX IMVI melanoma): 38.9 µM
- GI50 (M14 melanoma): 3.62 µM
- TGI (M14 melanoma): 15.5 µM
- GI50 (MALME-3M melanoma): 0.378 µM
- TGI (MALME-3M melanoma): 2.8 µM
- GI50 (MCF7 breast): 2.28 µM
- TGI (MCF7 breast): 15 µM
- GI50 (MDA-MB-231 breast): 11.9 µM
- TGI (MDA-MB-231 breast): 39.8 µM
- GI50 (MDA-MB-435): 4.1 µM
- TGI (MDA-MB-435): 17.9 µM
- GI50 (MOLT-4 leukemia): 4.5 µM
- TGI (MOLT-4 leukemia): 34.9 µM
- GI50 (NCI-H226 lung): 1.8 µM
- TGI (NCI-H226 lung): 14.2 µM
- GI50 (NCI-H23 lung): 2.74 µM
- TGI (NCI-H23 lung): 23.5 µM
- GI50 (NCI-H460 lung): 4.12 µM
- TGI (NCI-H460 lung): 16.9 µM
- GI50 (NCI-H522 lung): 2.13 µM
- TGI (NCI-H522 lung): 12.4 µM
- GI50 (NCI/ADR-RES ovarian): > 100 µM
- TGI (NCI/ADR-RES ovarian): > 100 µM
- GI50 (OVCAR-3 ovarian): 1.62 µM
- TGI (OVCAR-3 ovarian): 5.41 µM
- GI50 (OVCAR-4 ovarian): 2.71 µM
- TGI (OVCAR-4 ovarian): 17.5 µM
- GI50 (OVCAR-5 ovarian): 29.7 µM
- TGI (OVCAR-5 ovarian): > 100 µM
- GI50 (OVCAR-8 ovarian): 2.42 µM
- TGI (OVCAR-8 ovarian): 26.7 µM
- GI50 (PC-3 prostate): 2.81 µM
- TGI (PC-3 prostate): 20.1 µM
- GI50 (RPMI-8226 leukemia): 7.75 µM
- TGI (RPMI-8226 leukemia): 46 µM
- GI50 (RXF 393 renal): 12.3 µM
- TGI (RXF 393 renal): > 65.5 µM
- GI50 (SF-268 CNS): 0.364 µM
- TGI (SF-268 CNS): 1.58 µM
- GI50 (SF-295 CNS): 0.813 µM
- TGI (SF-295 CNS): 6.58 µM
- GI50 (SF-539 CNS): 1.71 µM
- TGI (SF-539 CNS): 9.35 µM
- GI50 (SK-MEL-2 melanoma): 3.58 µM
- TGI (SK-MEL-2 melanoma): 11.5 µM
- GI50 (SK-MEL-28 melanoma): 1.8 µM
- TGI (SK-MEL-28 melanoma): 4.87 µM
- GI50 (SK-MEL-5 melanoma): 1.22 µM
- TGI (SK-MEL-5 melanoma): 2.92 µM
- GI50 (SK-OV-3 ovarian): 10.3 µM
- TGI (SK-OV-3 ovarian): 53.5 µM
- GI50 (SN12C renal): 0.388 µM
- TGI (SN12C renal): 3.52 µM
- GI50 (SNB-19 CNS): 0.525 µM
- TGI (SNB-19 CNS): 2.76 µM
- GI50 (SNB-75 CNS): 2.31 µM
- TGI (SNB-75 CNS): 12.9 µM
- GI50 (SR leukemia): 2.4 µM
- TGI (SR leukemia): 15.2 µM
- GI50 (SW-620 colon): 3.74 µM
- TGI (SW-620 colon): 24.2 µM
- GI50 (T-47D breast): 0.544 µM
- TGI (T-47D breast): 2.53 µM
- GI50 (TK-10 renal): 23.1 µM
- TGI (TK-10 renal): > 100 µM
- GI50 (U251 CNS): 0.468 µM
- TGI (U251 CNS): 3.61 µM
- GI50 (UACC-257 melanoma): 4.27 µM
- TGI (UACC-257 melanoma): 17.9 µM
- GI50 (UACC-62 melanoma): 2.61 µM
- TGI (UACC-62 melanoma): 13.3 µM
- GI50 (UO-31 renal): 9.18 µM
- TGI (UO-31 renal): > 100 µM
